Test results reported in the supplement of paper PMC10307832.

Experiments:
Experiment in all cases: relative viability (nuclei count vs DMSO), 5 days (fraction); higher = more cells survive
[1] = compound: C1COCCN1CC2=CC(=O)C(=CO2)OCCCCCSC3=C4C=CC(=CC4=NC=C3)C(F)(F)F [EHT 1864] + COc1cc2c(Oc3ccc(NC(=O)C4(C(=O)Nc5ccc(F)cc5)CC4)cc3F)ccnc2cc1OCCCN1CCOCC1 [Foretinib] (partner 0.25 µM)
In short: (§1)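 Dosing by pin tool came one day after lung cancer cell lines were seeded in 1536-well plates, using either one drug or a fixed anchor-drug dose plus five library-drug doses (not always all listed) in √10 steps. After 5 days, nuclei were counted on 4× images. Relative viability is treated-well nuclei count divided by vehicle-well nuclei count, and values are medians of duplicate plates.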

[2] = compound: C1COCCN1CC2=CC(=O)C(=CO2)OCCCCCSC3=C4C=CC(=CC4=NC=C3)C(F)(F)F [EHT 1864] + Cc1nc(Nc2ncc(C(=O)Nc3c(C)cccc3Cl)s2)cc(N2CCN(CCO)CC2)n1 [Dasatinib] (partner 0.075 µM)
In short: as §1

[3] = compound: C1COCCN1CC2=CC(=O)C(=CO2)OCCCCCSC3=C4C=CC(=CC4=NC=C3)C(F)(F)F [EHT 1864] + Nc1ncn([C@H]2C[C@H](O)[C@@H](CO)O2)c(=O)n1 [Decitabine] (partner 2 µM)
In short: as §1

[4] = compound: C1COCCN1CC2=CC(=O)C(=CO2)OCCCCCSC3=C4C=CC(=CC4=NC=C3)C(F)(F)F [EHT 1864] + CCNC(=O)c1noc(-c2cc(C(C)C)c(O)cc2O)c1-c1ccc(CN2CCOCC2)cc1 [Luminespib] (partner 0.01 µM)
In short: as §1

Row | Cell Line | relative viability ([1]; first compound 0.04 µM) | relative viability ([1]; first compound 0.1265 µM) | relative viability ([1]; first compound 0.4 µM) | relative viability ([1]; first compound 1.265 µM) | relative viability ([1]; first compound 4 µM) | relative viability ([2]; first compound 0.04 µM) | relative viability ([2]; first compound 0.1265 µM) | relative viability ([2]; first compound 0.4 µM) | relative viability ([2]; first compound 1.265 µM) | relative viability ([2]; first compound 4 µM) | relative viability ([3]; first compound 0.04 µM) | relative viability ([3]; first compound 0.1265 µM) | relative viability ([3]; first compound 0.4 µM) | relative viability ([3]; first compound 1.265 µM) | relative viability ([3]; first compound 4 µM) | relative viability ([4]; first compound 0.04 µM) | relative viability ([4]; first compound 0.1265 µM) | relative viability ([4]; first compound 0.4 µM) | relative viability ([4]; first compound 1.265 µM) | relative viability ([4]; first compound 4 µM)
1 | HCC-366 | 0.914 | 0.859 | 0.888 | 0.891 | 0.963 | 0.609 | 0.602 | 0.638 | 0.596 | 0.771 | 0.338 | 0.324 | 0.331 | 0.333 | 0.326 | – | – | – | – | –
2 | HCC-827 | 0.985 | 0.965 | 1.01 | 0.977 | 0.928 | 0.358 | 0.328 | 0.268 | 0.248 | 0.269 | 0.332 | 0.291 | 0.319 | 0.399 | 0.317 | 0.517 | 0.427 | 0.465 | 0.487 | 0.588
3 | HOP-62 | 1.02 | – | 1.03 | 0.991 | 1.13 | 0.561 | – | 0.74 | 0.589 | 0.84 | 0.225 | – | 0.202 | 0.241 | 0.246 | 0.932 | – | 0.765 | 0.798 | 0.982
4 | IA-LM | 1.21 | – | 1.09 | 1.03 | 0.901 | – | – | – | – | – | – | – | – | – | – | – | – | – | – | –
5 | LC-2-ad | 0.859 | – | 0.905 | 1.01 | 0.962 | 0.65 | – | 0.617 | 0.54 | 0.659 | 0.783 | 0.733 | 0.762 | 0.773 | 0.755 | 1.12 | – | 0.912 | 1 | 0.951
6 | LCLC-97TM1 | 0.848 | 0.842 | 0.948 | 0.939 | 0.949 | 0.888 | 0.748 | 0.828 | 0.727 | 0.8 | 0.271 | 0.237 | 0.22 | 0.235 | 0.271 | 0.701 | 0.517 | 0.772 | 0.718 | 0.784
7 | LCLC-103H | 0.791 | 0.618 | 0.736 | 0.637 | 0.733 | 0.409 | 0.399 | 0.373 | 0.431 | 0.505 | 0.734 | 0.67 | 0.744 | 0.708 | 0.66 | 0.874 | 0.798 | 0.932 | 0.975 | 0.919
8 | LK-2 | 1.14 | – | 0.919 | 0.982 | 1.35 | 0.36 | – | 0.353 | 0.246 | 0.257 | 0.292 | 0.312 | 0.169 | 0.333 | 0.265 | 0.167 | – | 0.224 | 0.178 | 0.177
9 | LOU-NH91 | 0.956 | 0.874 | 0.922 | 0.96 | 0.814 | 0.543 | 0.5 | 0.56 | 0.628 | 0.486 | 0.793 | 0.754 | 0.842 | 0.804 | 0.754 | 0.345 | 0.345 | 0.342 | 0.294 | 0.32
10 | LU99A | 0.818 | 0.796 | 0.835 | 0.805 | 0.749 | 0.482 | 0.413 | 0.613 | 0.564 | 0.436 | 0.843 | 0.757 | 0.827 | 0.903 | 0.872 | 0.186 | 0.242 | 0.229 | 0.215 | 0.233
11 | LXF-289 | 0.976 | 0.961 | 0.947 | 0.925 | 0.851 | 0.237 | 0.239 | 0.253 | 0.171 | 0.207 | 0.431 | 0.351 | 0.388 | 0.385 | 0.361 | 0.739 | 0.544 | 0.689 | 0.657 | 0.647
12 | NCI-H23 | 0.92 | 0.959 | 0.889 | 0.956 | 0.923 | 0.741 | 0.536 | 0.522 | 0.481 | 0.779 | 0.297 | 0.29 | 0.314 | 0.343 | 0.393 | 0.194 | – | 0.242 | 0.193 | 0.204
13 | NCI-H322M | 0.898 | 0.948 | 0.995 | 0.895 | 1.06 | 0.256 | 0.24 | 0.283 | 0.23 | 0.234 | 0.659 | 0.692 | 0.698 | 0.679 | 0.724 | 0.877 | 0.859 | 0.955 | 0.529 | 1.06
14 | NCI-H358 | 0.689 | 0.613 | 0.848 | 0.637 | 0.621 | 0.215 | 0.145 | 0.17 | 0.174 | 0.186 | 0.238 | 0.241 | 0.212 | 0.263 | 0.192 | 0.302 | 0.398 | 0.313 | 0.469 | 0.414
15 | NCI-H522 | – | – | – | – | – | 0.919 | 0.724 | 1.04 | 0.812 | 0.875 | 0.592 | 0.685 | 0.709 | 0.702 | 0.703 | 1.18 | – | 1.23 | 1.06 | 1.22
16 | NCI-H1299 | 1.05 | 1.09 | 1.06 | 1.04 | 1.07 | – | – | – | – | – | – | – | – | – | – | – | – | – | – | –
17 | NCI-H1563 | 0.962 | 0.896 | 0.978 | 0.857 | 0.908 | 0.437 | 0.466 | 0.469 | 0.43 | 0.489 | – | – | – | – | – | 0.497 | 0.503 | 0.556 | 0.54 | 0.553
18 | NCI-H1648 | – | – | – | – | – | – | – | – | – | – | 0.564 | – | 0.471 | 0.502 | 0.643 | – | – | – | – | –
19 | NCI-H1703 | 0.309 | – | 0.299 | 0.339 | 0.382 | – | – | – | – | – | – | – | – | – | – | – | – | – | – | –
20 | NCI-H1792 | – | – | – | – | – | 0.755 | 0.778 | 0.714 | 0.73 | 0.894 | 0.506 | – | 0.515 | 0.567 | 0.601 | 0.393 | – | 0.376 | 0.361 | 0.533
21 | NCI-H2228 | 0.81 | 0.758 | 0.904 | 0.836 | 0.9 | 0.485 | 0.456 | 0.418 | 0.448 | 0.496 | – | – | – | – | – | 0.143 | 0.145 | 0.182 | 0.193 | 0.0861
